# Test results: patent US9333197B2, “Apoptosis signal-regulating kinase inhibitor” (Gilead Sciences, Inc., priority 2012, dated 2016)
# Read-outs that look alike come from different tables or passages of the source.
# Legend:
# Caco-2 cells = assay: Determination of CACO-2 efflux ratio / permeability; assay type: in vitro ADME; conditions: for CACO A→B: apical to basolateral; for CACO B→A: basolateral to apical
# Method: (§1) Caco-2 cells were maintained in Dulbecco's Modification of Eagle's Medium (DMEM) with sodium pyruvate, Glutmax supplemented with 1% Pen/Strep, 1% NEAA and 10% fetal bovine serum in an incubator set at 37° C., 90% humidity and 5% CO2. Caco-2 cells between passage 62 and 72 were seeded at 2100 cells/well and were grown to confluence over at least 21-days on 24 well PET (polyethylene-terephthalate) plates (BD Biosciences). The receiver well contained HBSS buffer (10 mM HEPES, 15 mM Glucose with pH adjusted to pH 6.5) supplemented with 1% BSA pH adjusted to pH 7.4. After an initial equilibration with transport buffer, TEER values were read to test membrane integrity. Buffers containing test compounds were added and 100 μl of solution was taken at 1 and 2 hrs from the receiver compartment. Removed buffer was replaced with fresh buffer and a correction is applied to all calculations for the removed material. The experiment was carried out in replicate. All samples were immediately collected into 400 μl 100% acetonitrile acid to precipitate protein and stabilize test compounds. Cells were dosed on the apical or basolateral side to determine forward (A to B) and reverse (B to A) permeability. Permeability through a cell free trans-well is also determined as a measure of cellular permeability through the membrane and non-specific binding. To test for non-specific binding and compound instability percent recovery is determined. Samples were analyzed by LC/MS/MS.
# (§2) Vr and Vd is the volume in the receiver and donor compartment in cm^3, respectively. A is the area of the cell monolayer (0.33 cm^2). D0 and D120 is the measured donor concentration at the beginning and end of the experiment, respectively. R120 is the receiver concentration at the end of the experiment (120 minutes).
# CYP3A4 = CYP3A4 (Homo sapiens (Human), UniProt P08684); assay: Cytochrome P450 inhibition IC50, CYP3A4 (midazolam and testosterone); assay type: in vitro ADME; conditions: for IC50: comparative table, testosterone substrate, read-out: Cyp3A4 IC50 Testesterone (TST)
# [1] = Rat pharmacokinetics, 1 mg/kg IV infusion and 5.0 mg/kg PO; assay type: in vivo; conditions: for clearance / Vd: 1 mg/kg IV infusion; for clearance: read-out: CL in rats (converted); for Vd: read-out: Vss in rats; for bioavailability: 5.0 mg/kg PO, read-out: oral bioavailability (% F) in rats
# Method: For IV administration the test compound was formulated in 60:40 PEG 400:water with 1 equivalent HCl at 0.5 mg/mL.
# For PO (oral) administration, the test compound was formulated in 5/75/10/10 ethanol/PG/solutol/water at 2.5 mg/mL.
# IV and PO dosing groups each consisted of 3 male SD rats. […] The animals were fasted overnight prior to dose administration and up to 4 hr after dosing.
# For the IV infusion group, the test compound was administered by intravenous infusion over 30 minutes. The rate of infusion was adjusted according to the body weight of each animal to deliver a dose of 1 mg/kg at 2 mL/kg. For the oral dosing group, the test article was administered by oral gavage at 2 mL/kg for a dose of 5.0 mg/kg.
# Serial venous blood samples (approximately 0.4 mL each) were taken at specified time points after dosing from each animal. The blood samples were collected into Vacutainer™ tubes (Becton-Disckinson Corp, New Jersey, USA) containing EDTA as the anti-coagulant and were immediately placed on wet ice pending centrifugation for plasma.
# An LC/MS/MS method was used to measure the concentration of test compound in plasma.
# Non-compartmental pharmacokinetic analysis was performed on the plasma concentration-time data.
# [2] = Determination of CACO-2 efflux ratio / permeability; assay type: in vitro ADME; conditions: human, Caco-2, pH 7.4; read-out: Efflux ratio (B/A)/(A/B)
# Method: as §1, §2
# ASK1 = ASK1 (Rattus norvegicus, UniProt A0A8I6AEL0); assay: ASK1 293 cell-based assay (cellular EC50), AP-1:luciferase reporter
# Method: 2. […] Promega Steady-Glo Luciferase Assay System product insert. 3. Media Required Complete Growth Medium, “CGM” DMEM (MediaTech) 10% FBS 1% PSG 100 ug/mL HygromycinB Assay Medium, “AM” DMEM (Invitrogen) 25 mM HEPES 1 mM Sodium Pyruvate 1% PSG 4. Methods Maintenance:
# Count cells and dilute to 1.5×10^5 cells per mL; add adenovirus such that there are 5 infectious forming units per cell.
# Prime (20 to 30 mL) and plate cells in Greiner poly-D-Lysine coated 384-well plates at 1.2×10^4 cells per well using BioTek uFill (80 uL per well).
# Immediately dose plates with 0.4 uL of compound dose series (in 100% DMSO) incubate 24 hours in humidified incubator (37° C., 5% CO2).
# Process plates (per manufacturer's instructions) as follows:
# Remove 60 uL of AM from assay wells
# Add 20 uL per well Steady-Glo Firefly substrate, let sit for 10-20 minutes at room temperature
# Acquire data on a fluorescence plate reader
# [3] = 3 h, 2 μM, pH 7.4
# Method: 1 mL Teflon dialysis cells from Harvard Apparatus (Holliston, Mass., USA) were used in these experiments. […] A nominal concentration of 2 μM of compound was spiked into 1 mL of plasma or 1 mL of cell culture media. The total volume of liquid on each side of the cell was 1 mL. After 3 hours equilibration in a 37° C. water bath, samples from each side of the cell were aliquoted into the appropriate vials containing either 1 mL of human plasma (cell culture media), or buffer. Sample vials were weighed and recorded. […] Samples were vortexed and centrifuged for 15 minutes at 12000 G. 200 μL of the supernatant was removed and placed into a new 96 well plate. An additional 200 μL of 1:1 ACN:water was added. The plate was then vortexed and subjected to LC-MS analysis. The percent unbound for an analyte in plasma was calculated using the following equations % Unbound=100(Cf/Ct) where Cf and Ct are the post-dialysis buffer and plasma concentrations, respectively.
# [4] = Sprague-Dawley, rat, plasma, male SD rats
# Sequence of CYP3A4 (P08684 whole entry, the tested form may be a part): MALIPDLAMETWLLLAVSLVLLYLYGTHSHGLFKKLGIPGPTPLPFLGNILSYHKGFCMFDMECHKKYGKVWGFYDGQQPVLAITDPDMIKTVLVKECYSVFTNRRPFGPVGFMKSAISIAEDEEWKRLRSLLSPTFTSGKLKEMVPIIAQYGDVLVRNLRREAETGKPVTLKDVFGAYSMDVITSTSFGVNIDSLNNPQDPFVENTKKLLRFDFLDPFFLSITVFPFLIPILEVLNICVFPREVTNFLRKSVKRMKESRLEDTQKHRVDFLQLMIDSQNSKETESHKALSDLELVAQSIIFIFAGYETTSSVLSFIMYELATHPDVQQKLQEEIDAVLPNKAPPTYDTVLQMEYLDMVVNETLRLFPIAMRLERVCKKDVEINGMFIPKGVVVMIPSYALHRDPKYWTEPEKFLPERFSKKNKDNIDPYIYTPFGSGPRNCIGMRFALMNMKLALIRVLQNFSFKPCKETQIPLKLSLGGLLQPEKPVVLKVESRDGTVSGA
# Sequence of ASK1 (A0A8I6AEL0 1-1381): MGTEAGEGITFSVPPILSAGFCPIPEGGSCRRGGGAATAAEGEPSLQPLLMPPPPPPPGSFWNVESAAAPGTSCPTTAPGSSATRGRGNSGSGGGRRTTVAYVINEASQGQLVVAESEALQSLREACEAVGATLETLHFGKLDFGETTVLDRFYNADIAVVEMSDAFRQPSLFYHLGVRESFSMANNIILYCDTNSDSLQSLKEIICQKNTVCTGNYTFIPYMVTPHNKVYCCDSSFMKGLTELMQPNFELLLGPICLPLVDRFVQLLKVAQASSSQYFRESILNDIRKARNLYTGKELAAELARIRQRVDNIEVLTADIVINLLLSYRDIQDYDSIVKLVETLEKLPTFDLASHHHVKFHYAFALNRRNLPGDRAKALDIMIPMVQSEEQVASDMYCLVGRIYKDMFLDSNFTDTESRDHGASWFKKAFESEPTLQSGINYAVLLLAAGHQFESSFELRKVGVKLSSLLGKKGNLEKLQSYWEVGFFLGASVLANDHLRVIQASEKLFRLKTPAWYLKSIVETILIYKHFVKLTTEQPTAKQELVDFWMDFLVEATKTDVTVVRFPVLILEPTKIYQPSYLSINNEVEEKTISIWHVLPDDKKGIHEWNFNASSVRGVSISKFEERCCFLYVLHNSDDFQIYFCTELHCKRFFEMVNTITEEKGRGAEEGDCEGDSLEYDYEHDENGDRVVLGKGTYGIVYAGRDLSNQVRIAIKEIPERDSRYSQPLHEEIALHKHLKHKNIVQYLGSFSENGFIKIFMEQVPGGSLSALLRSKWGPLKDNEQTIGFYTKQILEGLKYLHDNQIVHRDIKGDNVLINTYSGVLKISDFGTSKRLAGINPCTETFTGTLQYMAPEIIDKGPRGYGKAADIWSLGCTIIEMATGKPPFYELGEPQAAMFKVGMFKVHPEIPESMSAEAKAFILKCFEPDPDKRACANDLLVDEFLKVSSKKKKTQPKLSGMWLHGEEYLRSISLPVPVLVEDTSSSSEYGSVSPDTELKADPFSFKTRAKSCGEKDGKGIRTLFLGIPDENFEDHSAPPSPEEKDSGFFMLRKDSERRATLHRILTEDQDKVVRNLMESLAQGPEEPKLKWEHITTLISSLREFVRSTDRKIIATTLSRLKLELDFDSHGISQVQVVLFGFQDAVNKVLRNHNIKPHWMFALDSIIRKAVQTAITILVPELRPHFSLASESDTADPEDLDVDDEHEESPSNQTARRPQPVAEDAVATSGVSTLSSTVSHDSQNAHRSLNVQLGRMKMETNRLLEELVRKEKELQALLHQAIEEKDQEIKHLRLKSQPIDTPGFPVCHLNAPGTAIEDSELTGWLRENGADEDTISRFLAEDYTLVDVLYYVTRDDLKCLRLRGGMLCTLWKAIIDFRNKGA
SMILES,CACO A→B (Caco-2 cells),CACO B→A (Caco-2 cells),number of times compound of formula (I) shows an improvement over the indicated compound: Cyp3A4 IC50 (TST) (CYP3A4) [X],IC50 (CYP3A4) [nM],"clearance [1, 4] [mL/min/kg]","Vd [1, 4] [L/kg]","bioavailability [1, 4] [%]","number of times compound of formula (I) shows an improvement over the indicated compound: % F in rats ([1]; rat, in vivo) [X]","number of times compound of formula (I) shows an improvement over the indicated compound: CL in rats ([1]; rat, in vivo) [X]","number of times compound of formula (I) shows an improvement over the indicated compound: t½ in rats ([1]; rat, in vivo) [X]",further results
CC(C)n1cnnc1-c1cccc(NC(=O)c2cccc(-n3cnc(C4CC4)c3)c2)n1 [Compound A],3.1,18.5,10,1100,5,0.17,11,6.8,2.7,8.6,"t1/2 in rats ([1]; male SD rats): 0.59 h; number of times compound of formula (I) shows an improvement over the indicated compound: Vss in rats ([1]; rat, in vivo): 3.2 X"
Cc1ccc(C(=O)Nc2cccc(-c3nncn3C3CC3)n2)cc1-n1cnc(C2CC2)c1 [Compound B],0.26,4,2.8,4000,6.5,0.54,50,1.5,3.6,3.9,"efflux ratio at 120 min [2]: 15.4; number of times compound of formula (I) shows an improvement over the indicated compound: Cyp3A4 IC50/PBAdj.EC50 (CYP3A4): 92 X; Cyp3A4 IC50/PBAdj.EC50 (CYP3A4; ratio of Cyp3A4 inhibition and protein binding adjusted EC50): 7; half-life ([1]; Sprague-Dawley, rat, plasma, male SD rats, read-out: t1/2 in rats (converted)): 1.3 h; number of times compound of formula (I) shows an improvement over the indicated compound: EC50 (ASK1): 9 X; number of times compound of formula (I) shows an improvement over the indicated compound: PBadj EC50 (ASK1): 33 X; EC50 (ASK1; 293/AP1-Luc cells infected with adenovirus expressing kinase active ASK1, 24 hours): 18 nM; EC50 (ASK1; protein binding adjusted EC50, read-out: PBadj EC50): 563 nM"
"Cc1cc(F)c(C(=O)Nc2cccc(-c3nncn3C(C)C)n2)cc1-n1cnc(C2CC2)c1 [compound of formula (I), 5-(4-cyclopropyl-1H-imidazol-1-yl)-N-(6-(4-isopropyl-4H-1,2,4-triazol-3-yl)pyridin-2-yl)-2-fluoro-4-methylbenzamide]",,,,,,,,,,,"percent unbound measured in human plasma [3]: 11.94%; Vd ([1]; rat, plasma, male SD rats): 0.55 L/kg; bioavailability ([1]; rat, plasma, male SD rats): 75%"
